Experimental data reported in ChEMBL document CHEMBL1201862, “PubChem BioAssay data set” (2004).
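Assay format: 96-well plates, 48-hour exposure. The concentration for 50% growth inhibition is given as GI50.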 Active and inactive are the calls of the source. No stated cut-off is given here; in the data, active = GI50 up to about 1.1 µM and inactive = higher.

Legend:
Test in all cases: NCI anticancer screen, dose series, 48 h
786-0 = tested on: 786-0
ACHN = tested on: ACHN
CAKI-1 = tested on: CAKI-1
CCRF-CEM = tested on: CCRF-CEM
COLO 205 = tested on: COLO 205
K562 = tested on: K562
KM12 = tested on: KM12
MOLT-4 = tested on: MOLT-4
NCI-H460 = tested on: NCI-H460
OVCAR-5 = tested on: OVCAR-5
SF-295 = tested on: SF-295
SK-OV-3 = tested on: SK-OV-3
SN12C = tested on: SN12C
SNB-19 = tested on: SNB-19
SNB-75 = tested on: SNB-75
TK-10 = tested on: TK-10
LOX IMVI = tested on: LOX IMVI
UO-31 = tested on: UO-31

Measured: GI50

O=C(c1ccccc1)c1c(-c2ccccc2)sc2nc3ccccc3nc12
inactive: 786-0 38.1 µM | ACHN > 100 µM | CAKI-1 > 100 µM | CCRF-CEM > 100 µM | COLO 205 > 100 µM | K562 > 100 µM | KM12 > 100 µM | MOLT-4 > 100 µM | NCI-H460 > 100 µM | OVCAR-5 > 100 µM | SF-295 52.7 µM | SK-OV-3 > 100 µM | SN12C > 100 µM | SNB-19 55 µM | SNB-75 32.8 µM | TK-10 > 100 µM

COC(=O)C(=O)C(C#N)c1c(Cl)cccc1Cl (configuration not stated)
inactive: 786-0 > 100 µM | ACHN > 100 µM | CAKI-1 > 100 µM | COLO 205 > 100 µM | K562 > 100 µM | LOX IMVI > 100 µM | MOLT-4 > 100 µM | NCI-H460 > 100 µM | OVCAR-5 > 100 µM | SF-295 > 100 µM | SK-OV-3 > 100 µM | SN12C > 100 µM | SNB-19 > 100 µM | SNB-75 > 100 µM | TK-10 > 100 µM | UO-31 > 100 µM

N#C/N=C1\NCCC(=O)N1CCc1c[nH]c2ccccc12
inactive: 786-0 > 100 µM | CCRF-CEM > 100 µM | COLO 205 > 100 µM | K562 > 100 µM | KM12 > 100 µM | LOX IMVI > 100 µM | MOLT-4 > 100 µM | SF-295 > 100 µM | SK-OV-3 > 100 µM | SN12C > 100 µM | SNB-19 > 100 µM | SNB-75 > 100 µM | TK-10 > 100 µM | UO-31 > 100 µM

CN(C)CCCCC1CCN(CC(=O)N2c3ccccc3NC(=O)c3ccccc32)CC1
inactive: 786-0 > 100 µM | CAKI-1 > 100 µM | CCRF-CEM 69.8 µM | COLO 205 > 100 µM | K562 > 100 µM | KM12 > 100 µM | MOLT-4 > 100 µM | SF-295 > 100 µM | SK-OV-3 > 100 µM | SN12C > 100 µM | SNB-19 > 100 µM | SNB-75 > 100 µM | TK-10 > 100 µM | UO-31 > 100 µM

O=C1C2Cc3ccccc3CN2C(=O)N1CCN1CCOCC1 (configuration not stated)
inactive: 786-0 > 100 µM | ACHN > 100 µM | CAKI-1 > 100 µM | CCRF-CEM > 100 µM | COLO 205 > 100 µM | K562 > 100 µM | KM12 > 100 µM | LOX IMVI > 100 µM | MOLT-4 > 100 µM | NCI-H460 > 100 µM | OVCAR-5 > 100 µM | SF-295 > 100 µM | SN12C > 100 µM | SNB-19 > 100 µM | TK-10 > 100 µM | UO-31 > 100 µM

CC1(C)c2ccccc2C(O)C12CCC(=O)CC2 (configuration not stated)
inactive: 786-0 > 100 µM | ACHN > 100 µM | COLO 205 > 100 µM | K562 > 100 µM | KM12 > 100 µM | LOX IMVI > 100 µM | NCI-H460 > 100 µM | OVCAR-5 > 100 µM | SF-295 > 100 µM | SK-OV-3 > 100 µM | SN12C > 100 µM | SNB-19 > 100 µM | TK-10 > 100 µM | UO-31 > 100 µM

CN(C)CCCNc1ccnc2c([N+](=O)[O-])cccc12
inactive: 786-0 22.2 µM | ACHN 31.1 µM | CAKI-1 35.3 µM | CCRF-CEM 34.3 µM | COLO 205 2.37 µM | K562 > 10 µM | KM12 24.9 µM | LOX IMVI 19.5 µM | MOLT-4 21.8 µM | NCI-H460 15.5 µM | OVCAR-5 > 10 µM | SF-295 20.9 µM | SK-OV-3 3.85 µM | SN12C 14.6 µM | SNB-19 23.4 µM | TK-10 > 100 µM | UO-31 38.7 µM
